{
  "source": "patent US9910031B2",
  "about": "“Compositions and methods for modulating c-Rel-dependent cytokine production” (Synta Pharmaceuticals Corporation, priority 2003, dated 2018)",
  "key": {"p65": {"system": "p65", "assay": "ELISA based transcriptional factor-DNA binding activity assay, THP-1 nuclear extracts, p65", "assay_type": "cell-based, human", "settings": "IFN-γ/LPS, 500 nm, 3 hrs", "protocol": "(§1) Nuclear extracts were prepared from IFN-γ-primed THP-1 cells that had been treated with or without SAC and incubated in the presence or absence of 1 μM Compound 1 or 10 mM ASA. Isolation of nuclear extracts was accomplished by first suspending THP-1 cells in 20 volumes of buffer A containing 10 mM KCl, 10 mM HEPES (pH 7.9), 1 mM MgCl2, 1 mM dithiothreitol (DTT), 0.1% Nonidet p40 (NP-40), and 0.5 mM phenylmethylsulfonyl fluoride (PMSF) and then homogenizing and centrifuging at 10,000 rpm at 4° C. for 5 min. Nuclear pellets were then suspended in buffer C containing 400 mM NaCl, 20 mM HEPES pH 7.9), 15 mM MgCl2, 0.2 mM EDTA, 1 mM DTT, 25% glycerol, 1 mM PMSF, and 10 μg of leupeptin, 20 μg of pepstatin, and 10 μg of antipain per ml, incubated for 30 min at 4° C., and centrifuge at 14,000 rpm for […]. The supernatants were dialyzed against buffer D containing 100 mM NaCl, 20 mM HEPES (pH 7.9), 20% glycerol, 1 mM PMSF, and 1 mM DTT.\n(§2) To understand the action of Compound 2 in NF-κB binding, several NF-κB family members, p50, c-Rel and p65 were investigated using an ELISA based transcriptional factor-DNA binding activity assay system. […]"}, "Rel-B": {"system": "Rel-B", "assay": "Immunoblot of nuclear Rel-B in THP1 cells", "assay_type": "cell-based, human", "settings": "THP1, IFNg+LPS, 100 nM, 6 h", "protocol": "(§3) Rel B and p52 are two members of Rel family, which are preferentially complexed with each other. Like p50 and p65, p52 is found in virtually all cell types, whereas c-Rel and Rel B have only been detected in lymphoid tissues. To determine the effect of Compound 2 on p52 and Rel-B nuclear translocation, THP1 cells were stimulated with IFNg+LPS in either the presence or absence of 100 nM Compound 2, and the distribution of p52 and Rel-B was determined by immunoblotting of nuclear at 6 h post-treatment.\n(§4) THP-1 cells were suspended in 20 volumes of buffer A containing 10 mM KCl, 10 mM HEPES (pH 7.9), 1 mM MgCl2, 1 mM dithiothreitol (DTT), 0.1% Nonidet p40 (NP-40), and 0.5 mM phenylmethylsulfonyl fluoride (PMSF) and homogenized and centrifuged at 10,000 rpm at 4 C for 5 min. Nuclear pellets were then suspended in buffer C containing 400 mM NaCl, 20 mM HEPES 9 pH 7.9), 15 mM MgCl2, 0.2 mM EDTA, 1 mM DTT, 25% glycerol, 1 mM PMSF, and 10 ug of leupeptin, 20 ug of pepstatin, and 10 ug/ml antipain, incubated for 30 min at 4 C, and centrifuged at 14,000 rpm for 20 min. The supernatants were dialyzed against buffer D containing 100 mM NaCl, 20 mM HEPES (pH 7.9), 20% glycerol, 1 mM PMSF, and 1 mM DTT.\n(§5) The 10% SDS Polyacrylamide gels (Invitrogen) were transferred to Pure Nitrocellulose membrane (BioRed, Hercules, Calif.). […]"}, "p50": {"system": "p50", "assay": "ELISA based transcriptional factor-DNA binding activity assay, THP-1 nuclear extracts, p50", "assay_type": "cell-based, human", "settings": "IFN-γ/LPS, 500 nm, 3 hrs", "protocol": "as §1, §2"}, "IL-12 p70": {"system": "IL-12 p70", "assay": "IL-12 p70 production in human monocyte-derived dendritic cells", "assay_type": "cell-based", "settings": "IFN-γ primed then SAC or LPS", "protocol": "Although c-Rel has a role in the expression of both p35 and p40 in monocytes and macrophages as well as p35 in dendritic cells (DCs), p40 expression in dendritic cells is c-Rel-independent (Grumont et al. J. Exp. Med. 2001; 194:1021-1031). If Compound 2 is acting through c-Rel, this drug should inhibit both p40 and p70 production by PBMCs. However, Compound 2 should inhibit the production of p70 (through inhibition of p35) in DCs, but should not inhibit p40 in DCs. This was tested by generating monocyte-derived dendritic cells according to the following method. Human PBMC at 1×10^7 cells/ml were suspended in serum-free DMEM and incubated for 2 hrs at 37° C. under 5% CO2. The non-adherent cells then were removed by washing with PBS. The adherent cells were cultured in RPMI-1640 medium containing rhIL-4 (100 U/ml) and rhGM-CSF (1000 U/ml) for 6-7 days. The half volume fresh media and full-volume fresh cytokines were added every other day. The cells were then primed with IFN-γ (100 U/ml) and followed by 0.01% SAC or 1 μg/ml LPS, in the presence of different concentrations of Compound 2 or other compounds. The test compounds were prepared in DMSO and the final DMSO concentration was adjusted to 0.25% in all cultures, including the compound-free control. Cell-free supernatants were taken 18 h later for the measurement of cytokines."}, "p52": {"system": "p52", "assay": "Immunoblot of nuclear p52 in THP1 cells", "assay_type": "cell-based, human", "settings": "THP1, IFNg+LPS, 100 nM, 6 h", "protocol": "as §3, §4, §5"}, "c-Rel": {"system": "c-Rel", "assay": "ELISA based transcriptional factor-DNA binding activity assay, THP-1 nuclear extracts, c-Rel", "assay_type": "cell-based, human", "settings": "IFN-γ/LPS, 500 nm, 3 hrs", "protocol": "as §1, §2"}, "IκBβ": {"system": "IκBβ", "assay": "Inducible degradation of IκBβ, Western blot and FACS analysis", "assay_type": "cell-based, human", "settings": "THP-1 and RAW267.4 cells, IFN-γ/LPS or IFN-γ/SAC, 500 nM, 30 min and 2 hrs", "protocol": "IκB degradation is one of the steps in the signaling pathway of NFκB dependent genes. The activity of Compound 2 in inducible degradation of IκBα □ and IκBβ was investigated in THP-1 cells using Western blot and FACS analysis. […] Similar results were observed from the Compound 2 pre-treatment samples in which Compound 2 was added […] before stimulation."}},
  "data": [
    {"compound": "Cc1cccc(C=NNc2cc(N3CCOCC3)nc(OCCc3ccccn3)n2)c1", "note": "[Compound 2, N-(3-methyl-benzylidene)-N′-[6-morpholin-4-yl-2-(2-pyridin-2-yl-ethoxy)-pyrimidin-4-yl]-hydrazine]", "values": [
      {"measurement": "binding activity of p65", "setting": "p65", "value": "increased binding activity"},
      {"measurement": "nuclear Rel-B (FIG. 11)", "setting": "Rel-B", "value": "slightly increased"},
      {"measurement": "binding activity of p50", "setting": "p50", "value": "slightly decreased"},
      {"measurement": "p70 production in human DCs", "setting": "IL-12 p70", "value": "inhibit"},
      {"measurement": "nuclear p52 (FIG. 11)", "setting": "p52", "value": "No significant difference"},
      {"measurement": "binding activity of c-Rel", "setting": "c-Rel", "value": "significantly decreased"},
      {"measurement": "amount of IκBβ in the cytoplasm, treated vs untreated", "setting": "IκBβ", "value": "no significant difference"}
    ]}
  ]
}
